Measurements as given in patent US12728168B2, “Anti-CEA antibody-exatecan analog conjugate and pharmaceutical use thereof” (JIANGSU HENGRUI MEDICINE CO., LTD., priority 2019, dated 2026).

Assays:
[1] = target: T1, human CEACAM1 expressed on CHO cell surface (CEACAM1-CHO) (Homo sapiens, UniProt P13688); assay: FACS binding assay, CEACAM1-CHO cells; conditions: Table 17, humanized antibodies and controls
T1 construct: expressed in transfected cells; host or cells: CHO cells
T1 sequence (P13688 35-526): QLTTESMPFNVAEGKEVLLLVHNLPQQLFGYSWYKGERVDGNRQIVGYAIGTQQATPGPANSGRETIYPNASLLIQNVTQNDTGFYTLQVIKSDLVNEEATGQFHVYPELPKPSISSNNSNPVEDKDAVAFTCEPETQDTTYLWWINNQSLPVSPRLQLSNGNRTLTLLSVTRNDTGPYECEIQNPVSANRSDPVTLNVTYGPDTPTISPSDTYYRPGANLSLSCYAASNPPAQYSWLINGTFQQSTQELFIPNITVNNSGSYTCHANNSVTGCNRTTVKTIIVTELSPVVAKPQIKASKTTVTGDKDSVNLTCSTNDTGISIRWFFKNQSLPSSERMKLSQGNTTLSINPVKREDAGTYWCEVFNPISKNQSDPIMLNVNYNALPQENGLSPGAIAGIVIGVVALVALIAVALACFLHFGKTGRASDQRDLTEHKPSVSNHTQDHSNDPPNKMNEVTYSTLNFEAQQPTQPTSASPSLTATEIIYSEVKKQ
Procedure: (§1) In order to detect the binding of the antibody to the CEA protein on the cell surface, the binding activity of the antibody was determined by FACS using cells expressing CEA on the cell surface. Cells were harvested and centrifuged at 400 g at 4° C. for 5 min. Pre-cooled PBS containing FBS at final concentration 10% was added, and the mixture was centrifuged at 400 g at 4° C. for 5 min; the procedures were repeated twice. The cells were seeded into a 96-well plate at 10^5 cells/well, and 100 μL of gradient diluted antibody solution was added to each well. The plate was incubated at 4° C. for 60 min and centrifuged, and the supernatant was removed. 250 μL of pre-cooled PBS containing FBS at final concentration 10% was added to each well to resuspend the cells, and the suspension was centrifuged at 400 g at 4° C. for 5 min, followed by the removal of the supernatant; the procedures were repeated twice. 50 μL of 1:200 diluted secondary antibody Alexa Fluor@488 goat anti-human IgG (H+L) (Lifetechologies, Cat #A11013) was added. The plate was incubated in the dark at 4° C. for 45 min and centrifuged, and the supernatant was removed. 250 μL of pre-cooled PBS containing FBS at final concentration 10% was added to each cell to resuspend the cells, and the suspension was centrifuged at 400 g at 4° C. for 5 min; the procedures were repeated twice. 100 μL of pre-cooled PBS was added to each well to resuspend the cells. The plate was analyzed by a flow cytometer (BD, FACSverse) for fluorescence signal values. Higher values indicate higher binding activity of the antibody to the protein on the cell surface. Binding curves were plotted using PRISM analysis software based on the assay results, and the EC50 values for the binding activity of the antibody to the cell surface proteins human CEA (MKN45 human gastric cancer cells, Nanjing Kebai Biotechnology Co., Ltd., Cat #CBP60488), cynoCEA-CHO and CEACAM1-CHO were obtained by fitting.

[2] = test system: monkey CEA expressed on CHO cell surface (cynoCEA-CHO); assay: FACS binding assay, cynoCEA-CHO cells; design: species or system cynomolgus monkey; conditions: Table 17, humanized antibodies and controls
Procedure: as §1, with “The cells were seeded into a 96-well plate at 10^5 cells/well, and 100 μL of gradient diluted antibody solution was added to each well.” left out, “values.” for “values. Higher values indicate higher binding activity of the antibody to the protein on the cell surface. Binding curves were plotted using PRISM analysis software based on the assay results, and the EC50 values for the binding activity of the antibody to the cell surface proteins human CEA (MKN45 human gastric cancer cells, Nanjing Kebai Biotechnology Co., Ltd., Cat #CBP60488), cynoCEA-CHO and CEACAM1-CHO were obtained by fitting.”

human soluble CEA = target: T2, human soluble CEA (Homo sapiens, UniProt P06731); assay: Affinity of antibodies for soluble CEA using Biacore; assay type: binding; conditions: 1:1 Langmuir
T2 construct: His6 (C); made in house; host or cells: 293E cells
T2 sequence (P06731 with tags, fused parts or gaps): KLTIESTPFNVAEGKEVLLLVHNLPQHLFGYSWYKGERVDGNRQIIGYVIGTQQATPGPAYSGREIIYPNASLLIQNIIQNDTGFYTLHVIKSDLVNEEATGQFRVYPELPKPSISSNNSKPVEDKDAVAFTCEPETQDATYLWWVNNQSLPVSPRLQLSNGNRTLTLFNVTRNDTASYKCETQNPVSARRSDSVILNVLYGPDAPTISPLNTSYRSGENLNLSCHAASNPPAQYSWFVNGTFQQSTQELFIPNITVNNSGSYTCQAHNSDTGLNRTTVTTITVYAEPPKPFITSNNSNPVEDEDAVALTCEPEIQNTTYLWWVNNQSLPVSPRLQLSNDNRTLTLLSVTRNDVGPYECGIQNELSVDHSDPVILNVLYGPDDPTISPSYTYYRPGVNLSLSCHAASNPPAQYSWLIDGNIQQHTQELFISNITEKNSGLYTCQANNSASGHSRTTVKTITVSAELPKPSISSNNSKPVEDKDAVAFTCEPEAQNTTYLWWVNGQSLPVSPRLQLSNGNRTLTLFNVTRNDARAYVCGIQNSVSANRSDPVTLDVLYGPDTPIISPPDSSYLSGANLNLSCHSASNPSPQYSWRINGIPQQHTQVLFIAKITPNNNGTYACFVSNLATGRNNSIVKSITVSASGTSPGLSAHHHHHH
Procedure: The affinity of a test humanized antibody for human and monkey soluble CEA was determined using a Biacore (GE, T200) instrument. According to the method in the instructions of a human antibody capture kit (GE, Cat #BR-1008-39), the human antibody capture antibody was covalently conjugated to a biosensor chip CM5 (GE, Cat #BR-1005-30) of the Biacore instrument to affinity-capture a certain amount of the test antibody, then a series of concentration gradients of soluble CEA antigens were allow to flow through the surface of the chip, and reaction signals were detected in real time using Biacore, so that an association and dissociation curve was obtained. After each cycle of dissociation was completed, the biochip was washed and regenerated with a regeneration solution prepared in the human antibody capture kit. The data obtained from the experiment were fitted with the (1:1) Langmuir model using BIAevaluation version 4.1 software to obtain affinity values.

[3] = test system: HCT116 (without CEA expression); assay: Cytotoxicity of ADCs, Cell Titer-Glo, HCT116; assay type: cell-based; conditions: for IC50: 5 days
Procedure: (§2) Following conjugation of humanized CEA antibodies to toxin 2-A, cytotoxicity of each ADC to cancer cell lines with different CEA expression levels was evaluated. The CEA-highly expressing cells MKN45, the CEA-moderately expressing cells LS174T and the CEA-expressing negative cells HCT116 were plated in 96-well plates; gradient-diluted ADC samples were added to the cells the next day, and the cells were cultured at 37° C. for 5 days. 50 μL of Cell Titer-Glo reagent (Promega, Cat #G9242) was added to each well, and after incubation for 10 min in the dark, the luminescence signals were detected by a cell imaging detector (BioTek, Cytation5). An inhibition curve was plotted with the detection results using PRISM analysis software, and fitted to obtain an IC50 value of the inhibitory activity of the ADC against cell proliferation.

[4] = test system: MKN45 (with high CEA expression); assay: Cytotoxicity of ADCs, Cell Titer-Glo, MKN45; assay type: cell-based, human; conditions: for IC50: 5 days
Procedure: as §2

[5] = test system: MKN45 and HCT116 co-cultured; assay: Bystander effect and cytotoxicity, MKN45 and HCT116 co-cultured; assay type: cell-based; conditions: ADC 4 nM, 5 days, FIG. 2
Procedure: (§3) In order to evaluate the bystander effect and cytotoxicity of the ADC, the CEA-highly expressing cell line MKN45 and the CEA-expressing negative cell line HCT116 were cultured in a 6-well cell culture plate for 24 h, and then an ADC sample was added at a final concentration of 4 nM. The cells were cultured in a cell incubator at 37° C. for another 5 days.
(§4) The cells were digested with pancreatin and collected, and CEA Monoclonal Antibody FITC (ThermoFisher, Cat #MA1-80578) was added at a final concentration of 10 μg/mL. The cells were incubated on ice in the dark for 1 h, washed twice with PBS, and counted using a flow cytometer.

[6] = test system: MKN45 xenograft tumor model; assay: In vivo inhibitory activity against tumors, MKN45 xenograft; design: species or system BALB/c nude mice
Procedure: (§5) The in vivo efficacy of the ADC molecules was evaluated using LS174T and MKN45 xenograft tumor models. BALB/c nude mice (SPF grade, Shanghai Slac Laboratory Animal Co., Ltd., certificate no.: 201833814, license no.: SCXK (Jiangsu) 2016-0010) were housed in a 12/12 hour light/dark cycle at a temperature of 23±1° C. with humidity at 40-50%, with food (standard sterilized feed for mice) and water ad libitum. The mice were acclimatized for 10 days in a laboratory environment before the start of the experiment and then inoculated subcutaneously on the right flank with LS174T cells (5×10^5 cells/mouse) or MKN45 cells (4×10^6 cells/mouse). Tumors were allowed to grow to a size of about 150 mm^3, and then the mice were randomized into groups of 8. After grouping, the mice in the experimental groups were intraperitoneally injected with ADC samples in a dose of 1 mg/kg or 3 mg/kg, and those in the blank control group were intraperitoneally injected with PBS, only once. The sizes of the tumors on the mice were observed, measured and recorded.

[7] = test system: LS174T (with moderate CEA expression); assay: Cytotoxicity of ADCs, Cell Titer-Glo, LS174T; assay type: cell-based; conditions: for IC50: 5 days
Procedure: as §2

HCT116 cultured alone = assay: Bystander effect test, HCT116 cultured alone; assay type: cell-based; conditions: ADC 4 nM, 5 days, FIG. 2
Procedure: as §3, §4

[8] = test system: LS174T xenograft tumor model; assay: In vivo inhibitory activity against tumors, LS174T xenograft; design: species or system BALB/c nude mice
Procedure: as §5

[9] = ADC batches of high DAR (6.29-7)
[10] = ADC batches of low DAR (3.97-4.8)

Sequence of monkey CEA expressed on CHO cell surface (cynoCEA-CHO) (as listed by the source): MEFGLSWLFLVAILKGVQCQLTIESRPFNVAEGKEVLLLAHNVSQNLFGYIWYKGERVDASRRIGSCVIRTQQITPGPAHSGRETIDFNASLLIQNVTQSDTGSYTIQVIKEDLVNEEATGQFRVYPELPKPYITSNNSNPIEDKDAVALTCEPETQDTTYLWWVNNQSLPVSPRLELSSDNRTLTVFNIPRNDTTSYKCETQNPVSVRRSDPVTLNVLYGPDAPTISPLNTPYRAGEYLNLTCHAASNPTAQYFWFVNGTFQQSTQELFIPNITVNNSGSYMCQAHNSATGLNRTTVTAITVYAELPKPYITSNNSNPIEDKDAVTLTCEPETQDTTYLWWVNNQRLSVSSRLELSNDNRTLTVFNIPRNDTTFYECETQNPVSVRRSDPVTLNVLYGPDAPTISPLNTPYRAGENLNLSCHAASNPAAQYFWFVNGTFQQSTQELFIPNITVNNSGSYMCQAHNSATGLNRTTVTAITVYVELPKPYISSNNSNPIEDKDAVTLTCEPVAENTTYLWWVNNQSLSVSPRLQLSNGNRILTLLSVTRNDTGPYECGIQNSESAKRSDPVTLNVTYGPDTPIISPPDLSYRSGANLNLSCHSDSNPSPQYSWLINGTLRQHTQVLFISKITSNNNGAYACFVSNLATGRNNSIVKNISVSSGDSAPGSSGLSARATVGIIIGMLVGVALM

For Lmab [reference compound], which “EC50 (nM) CEACAM1-CHO” value [1] is on record?
Its value is “No binding”.

What about the “EC50 (nM) cynoCEA-CHO” value [2] of the same substance?
The value was “No binding”.

What about the “ka” value (human soluble CEA) of the same substance?
The value was 55800 M⁻¹ s⁻¹.

What about the “kd” value (human soluble CEA) of the same substance?
The value was 0.000331 s⁻¹.

Which IC50 [3, 9] does the source give for “Lmab-CL2A-SN38: control ADC: toxin CL2A-SN38 conjugated to Lmab (labetuzumab)” here?
The IC50 was 0.428 nM.

And the IC50 [3, 10]?
The IC50 was 1.06 nM.

And the “dependence of cytotoxicity on CEA expression level” value ([3]; MKN45, LS174T and HCT116 compared)?
Its value is “non-specific cytotoxicity”.

And the IC50 [4, 9]?
Its IC50 is 0.665 nM.

What about the IC50 [4, 10] of the same substance?
Its IC50 is 1.59 nM.

What about the “IC50 ratio HCT116/MKN45” value [4, 9] of the same substance?
The value was 0.64.

And the “IC50 ratio HCT116/MKN45” value [4, 10]?
The value was 0.66.

And the “bystander effect and cytotoxicity” value [5]?
The value was “very toxic”.

What about the “Tumor inhibition rate (%)” value ([6]; 3 mpk, intraperitoneal, only once, 3 mg/kg) of the same substance?
Its value is 13.51%.

And the “effect on tumor volume” value ([6]; FIG. 5, ranking among the 3-mpk groups)?
Its value is “the worst inhibitory effect on tumors”.

And the “effect on tumor weight” value ([6]; FIG. 6, last day, ranking among the 3-mpk groups)?
Its value is “the worst inhibitory effect on tumors”.

What about the IC50 [7, 9] of the same substance?
Its IC50 is 0.346 nM.

What about the IC50 [7, 10] of the same substance?
Its IC50 is 0.662 nM.

What about the “IC50 ratio HCT116/LS174T” value [7, 9] of the same substance?
Its value is 1.24.

What about the “IC50 ratio HCT116/LS174T” value [7, 10] of the same substance?
The value was 1.60.

And the “toxicity to HCT116 cultured alone” value (HCT116 cultured alone)?
Its value is “very toxic”.

And the “Tumor inhibition rate (%)” value ([8]; 3 mpk, intraperitoneal, only once)?
Its value is 33.44%.

What about the “effect on tumor volume” value ([8]; FIG. 3, ranking among the 3-mpk groups) of the same substance?
The value was “the worst inhibitory effect on tumors”.

And the “effect on tumor weight” value ([8]; FIG. 4, last day, ranking among the 3-mpk groups)?
The value was “the worst inhibitory effect on tumors”.
